{
  "source": "patent US20160102099A1",
  "about": "“ANTI-VIRAL COMPOUNDS” (Kineta, Inc., priority 2011, published 2016)",
  "key": {"IFNβ promoter": {"test_system": "IFNβ promoter", "assay": "Luciferase reporter assay, IFNβ promoter", "type": "cell-based", "details": "stably transfected human cells, 18-20 hours with compound, FIG. 1A", "procedure": "(§1) Luciferase Assay to Identify Active Compounds. Cultured human cells that were stably transfected with luciferase reporter gene driven by RIG-I responsive promoter (IFNβ, ISG56, or ISG54 promoter) were seeded and allowed to grow overnight. The compound “KIN2000” was then added and cells were grown in the presence of KIN2000 for 18-20 hours. Steady-Glo luciferase substrate (Promega) was added and luminescence was read on a luminometer (Berthold)."}, "ISG56 promoter": {"test_system": "ISG56 promoter", "assay": "Luciferase reporter assay, ISG56 promoter", "type": "cell-based", "details": "stably transfected human cells, 18-20 hours with compound, FIG. 1A", "procedure": "as §1"}, "ISG54 promoter": {"test_system": "ISG54 promoter", "assay": "Luciferase reporter assay, ISG54 promoter", "type": "cell-based", "details": "stably transfected human cells, 18-20 hours with compound, FIG. 1A", "procedure": "as §1"}, "β-actin promoter": {"test_system": "β-actin promoter", "assay": "Actin counterscreen (β-actin-luciferase reporter)", "type": "cell-based, human", "details": "specificity counterscreen, FIG. 1B"}, "HeLa cells": {"test_system": "HeLa cells", "assay": "MTS assay to determine cytotoxicity", "type": "cell-based, human", "details": "48 hours, 0, 1, 5, 10 and 20 μM, FIG. 1C", "procedure": "MTS Assay to Determine Cytotoxicity. Cultured human HeLa cells were treated with increasing amounts of compound or equivalent amounts of DMSO diluted in media for 48 hours to see their effect on cell viability. The proportion of viable cells was calculated using a cell viability assay that measures conversion of a tetrazolium compound (3-(4,5-dimethyl-2-yl)-5-(3-carboxymethoxyphenyl)-2-(4-sulfophenyl)-2H-tetrazolium, inner salt; the MTS assay) to a colored formazan compound in live cells. The conversion of MTS to formazan was detected in a 96-well microtiter plate reader, and the resulting optical densities could then be plotted directly to estimate cell viability. CELLTITER 96® AQueous One Solution Cell (Promega) was the one-step assay used, according to the manufacturer's protocol, and cells were incubated for three hours in the presence of reagent before O.D. reading was done. KIN2000 was diluted to final concentrations of 0, 1, 5, 10, and 20 μM in media containing 0.5% DMSO. Negative control wells contained no compound, and positive control for cytotoxicity was examined using an EMCV infection which causes 100% cytopathic effect. Each compound concentration and control was done in triplicate wells."}, "IRF-3": {"test_system": "IRF-3", "assay": "Immunofluorescent cytochemistry assay, IRF-3 activation and translocation to the nucleus", "type": "cell-based, human", "details": "U2OS cells (method) / HeLa cells (figure legend), 20 hours, increasing amounts, FIG. 2A", "procedure": "Immunofluorescent Cytochemistry Assay to Determine IRF-3 Activation and Translocation to the Nucleus.\nThe induction of ISG expression mediated by RIG-I is conferred by phosphorylation, dimerization, and nuclear translocation of the IRF-3 transcription factor. Cultured human U2OS cells were treated with increasing amounts of compound or equivalent amounts of DMSO diluted in media for 20 hours. Positive control wells were infected with 100 HA/mL Sendai virus for an equivalent time period. IRF-3 was detected using polyclonal rabbit serum specific to IRF-3 and a secondary antibody conjugated to DYLIGHT™ 488.\n(§2) Quantification of Immunofluorescent Assays.\n(§3) 96-well plates containing cultured human cells treated with compound and stained for either IRF-3 or NFκB were scanned and quantified using the ARRAYSCAN® instrument and software (Cellomics). Activation of transcription factor is evidenced by increased nuclear intensity normalized for cytoplasmic intensity, or nuclear-cytoplasmic difference."}, "NFκB": {"test_system": "NFκB", "assay": "Immunofluorescent cytochemistry assay, NFκB activation", "type": "cell-based, human", "details": "HeLa cells, 20 hours, increasing amounts, FIG. 2B", "procedure": "Immunofluorescent Cytochemistry Assay to Determine NFκB Activation.\nThe innate immune response dependent on RIG-I also activates the NFκB transcription factor and thus increases nuclear levels. Cultured human HeLa cells were treated with increasing amounts of compound or equivalent amounts of DMSO diluted in media for 20 hours. Positive control wells were infected with 100 HA/mL Sendai virus for an equivalent time period. NFκB was detected using, in this example, monoclonal mouse antibody specific to the p65 subunit of NFκB and a secondary antibody conjugated to DyLight 488.\nas §2, §3"}, "[1]": {"test_system": "human primary dendritic cells", "assay": "Ex vivo cytokine expression in primary dendritic cells (Luminex/MAGPIX)", "type": "cell-based", "details": "dendritic cells, 0, 1 or 10 μM, 24 hours, supernatant, FIG. 3", "procedure": "The activity of KIN2000 in primary immune cells was assayed to determine whether KIN2000 stimulates immune responses. In this example, cultured human primary dendritic cells were treated with 0, 1, or 10 μM of KIN2000 for 24 hours. Supernatant from treated wells was isolated and tested for levels of cytokine protein. Cytokines were detected using specific antibodies conjugated to magnetic beads and a secondary antibody that reacts with Streptavidin/Phycoerythrin to produce a fluorescent signal. The bound beads were detected and quantified using the MAGPIX® instrument (LUMINEX®) in this Example, but a similar technique can also be used to measure fluorescent protein production, such as an ELISA."}},
  "note": "Entries after “also recorded” stand apart in the source; their conditions may differ.",
  "data": [
    {"molecule": "Cn1c(=O)c2c(SCc3cccc(C(F)(F)F)c3)nc(-c3ccco3)nc2n(C)c1=O", "note": "[KIN2000]", "values": [
      {"measurement": "induction of IFNβ-luciferase reporter gene", "setting": "IFNβ promoter", "value": "dose-dependent induction"},
      {"measurement": "induction of ISG56-luciferase reporter gene", "setting": "ISG56 promoter", "value": "dose-dependent induction"},
      {"measurement": "induction of ISG54-luciferase reporter gene", "setting": "ISG54 promoter", "value": "dose-dependent induction"},
      {"measurement": "induction of non-specific β-actin promoter (luciferase reporter)", "setting": "β-actin promoter", "value": "did not induce; also recorded: does not induce"},
      {"measurement": "cytotoxicity (MTS cell viability)", "setting": "HeLa cells", "value": "no evident cytotoxicity; also recorded: did not show evident cytotoxicity"},
      {"measurement": "IRF-3 translocation to the nucleus (nuclear-cytoplasmic difference)", "setting": "IRF-3", "value": "dose dependent increase; also recorded: dose-dependent increase"},
      {"measurement": "NFκB translocation (nuclear-cytoplasmic difference)", "setting": "NFκB", "value": "dose dependent increase; also recorded: dose-dependent increase"},
      {"measurement": "IL-8 expression", "setting": "[1]", "value": "induce expression; also recorded: dose-dependent expression"},
      {"measurement": "MCP-1 (CCL2) expression", "setting": "[1]", "value": "induce expression; also recorded: dose-dependent expression"},
      {"measurement": "MIP-1α (CCL3) expression", "setting": "[1]", "value": "induce expression; also recorded: dose-dependent expression"},
      {"measurement": "MIP-1β (CCL4) expression", "setting": "[1]", "value": "induce expression; also recorded: dose-dependent expression"}
    ]}
  ]
}
